Where a name gives a salt, the structure may show the parent alone. Read-outs that look alike come from different tables or passages of the source.
Target: full-length USP7 (Homo sapiens (Human), UniProt Q93009)
Assay: Enzymatic assay to determine IC50 of USP7 inhibitors (Ubiquitin-Rhodamine 110 cleavage)
Assay type: biochemical
Conditions: for IC50: 0.5 nM USP7, 0.5 μM Ubiquitin-Rhodamine 110, 45 min at 37° C.; for inhibition at 1 µM: read-out: percent value of inhibition of USP7 activity
In short: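 Enzyme: 0.5 nM full-length USP7 in HEPES pH 7.5 buffer with NaCl, DTT, BSA and Tween20, given 15 min at room temperature with DTT before compounds were added.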

[1] = at 1 μM of the test compound, given where IC50 not determined yet

Chain of full-length USP7 (Q93009 whole entry): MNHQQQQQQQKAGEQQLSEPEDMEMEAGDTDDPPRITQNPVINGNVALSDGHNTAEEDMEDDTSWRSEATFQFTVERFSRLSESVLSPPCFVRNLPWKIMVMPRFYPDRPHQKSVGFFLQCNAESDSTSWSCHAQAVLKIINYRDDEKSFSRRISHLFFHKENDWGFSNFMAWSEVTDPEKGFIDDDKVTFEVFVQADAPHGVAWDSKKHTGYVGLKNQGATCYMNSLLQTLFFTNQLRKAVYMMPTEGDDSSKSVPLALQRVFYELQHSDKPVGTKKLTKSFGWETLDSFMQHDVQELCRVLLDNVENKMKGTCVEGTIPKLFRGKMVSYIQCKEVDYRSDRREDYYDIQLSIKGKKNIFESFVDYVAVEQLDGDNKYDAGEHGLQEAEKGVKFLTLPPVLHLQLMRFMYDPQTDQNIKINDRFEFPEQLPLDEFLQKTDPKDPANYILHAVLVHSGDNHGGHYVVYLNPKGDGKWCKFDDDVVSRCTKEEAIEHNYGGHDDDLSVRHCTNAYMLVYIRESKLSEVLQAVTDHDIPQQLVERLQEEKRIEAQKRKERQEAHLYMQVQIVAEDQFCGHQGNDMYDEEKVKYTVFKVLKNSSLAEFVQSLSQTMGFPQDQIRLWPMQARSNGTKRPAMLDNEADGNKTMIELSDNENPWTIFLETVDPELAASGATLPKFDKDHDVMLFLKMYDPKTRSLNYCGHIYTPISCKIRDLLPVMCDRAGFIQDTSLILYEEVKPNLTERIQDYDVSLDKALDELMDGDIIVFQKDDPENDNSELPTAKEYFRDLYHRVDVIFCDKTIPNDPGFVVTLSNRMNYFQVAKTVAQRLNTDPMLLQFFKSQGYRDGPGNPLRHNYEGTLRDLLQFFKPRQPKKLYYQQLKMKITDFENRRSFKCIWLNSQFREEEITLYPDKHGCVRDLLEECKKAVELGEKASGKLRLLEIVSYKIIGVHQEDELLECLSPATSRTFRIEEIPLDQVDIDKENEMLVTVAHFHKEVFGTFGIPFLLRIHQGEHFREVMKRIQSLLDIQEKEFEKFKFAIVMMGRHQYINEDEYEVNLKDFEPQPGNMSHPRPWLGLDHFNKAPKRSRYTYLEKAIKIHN

SMILES	IC50 [nM]	other results
Cc1cc(Cl)nc(-c2ccnc3cc(CN4C(=O)C5C(C4=O)C5(C)C)sc23)c1NC1CC2(CNC2)C1 (centres unmarked) [Example 131, 3-((7-(3-((2-azaspiro[3.3]heptan-6-yl)amino)-6-chloro-4-methylpyridin-2-yl)thieno[3,2-b]pyridin-2-yl)methyl)-6,6-dimethyl-3-azabicyclo[3.1.0]hexane-2,4-dione hydrobromide]	< 500	
Cc1cc(C(F)(F)F)nc(-c2ccnc3cc(CN4C(=O)C5C(C4=O)C5(C)C)sc23)c1NC1CC2(CNC2)C1 (centres unmarked) [Example 132, 3-((7-(3-((2-azaspiro[3.3]heptan-6-yl)amino)-4-methyl-6-(trifluoromethyl)pyridin-2-yl)thieno[3,2-b]pyridin-2-yl)methyl)-6,6-dimethyl-3-azabicyclo[3.1.0]hexane-2,4-dione 2,2,2-trifluoroacetate]	< 500	
Cc1cc(C)c(NC(=O)C2CNC2)c(-c2ccnc3cc(CN4C(=O)C5C(C4=O)C5(C)C)sc23)n1 (centres unmarked) [Example 133, N-(2-(2-((6,6-dimethyl-2,4-dioxo-3-azabicyclo[3.1.0]hexan-3-yl)methyl)thieno[3,2-b]pyridin-7-yl)-4,6-dimethylpyridin-3-yl)azetidine-3-carboxamide 2,2,2-trifluoroacetate]	1000 to 10000	
Cc1cc(C)c(NC(=O)C2CCNCC2)c(-c2ccnc3cc(CN4C(=O)C5C(C4=O)C5(C)C)sc23)n1 (centres unmarked) [Example 134, N-(2-(2-((6,6-dimethyl-2,4-dioxo-3-azabicyclo[3.1.0]hexan-3-yl)methyl)thieno[3,2-b]pyridin-7-yl)-4,6-dimethylpyridin-3-yl)piperidine-4-carboxamide 2,2,2-trifluoroacetate]		inhibition at 1 µM: < 20%
Cc1cc(Cl)nc(-c2ccnc3cc(CN4C(=O)C5C(C4=O)C5(C)C)sc23)c1C(=O)N1CCNCC1 (centres unmarked) [Example 135, 3-((7-(6-chloro-4-methyl-3-(piperazine-1-carbonyl)pyridin-2-yl)thieno[3,2-b]pyridin-2-yl)methyl)-6,6-dimethyl-3-azabicyclo[3.1.0]hexane-2,4-dione 2,2,2-trifluoroacetate]		inhibition at 1 µM: < 20%
Cc1cc(C(F)(F)F)nc(-c2ccnc3cc(CN4C(=O)C5C(C4=O)C5(C)C)sc23)c1C(=O)N1CC[C@H](C(C)N)C1 (stereo partly drawn) [Example 138, 3-((7-(3-((3S)-3-(1-aminoethyl)pyrrolidine-1-carbonyl)-4-methyl-6-(trifluoromethyl)pyridin-2-yl)thieno[3,2-b]pyridin-2-yl)methyl)-6,6-dimethyl-3-azabicyclo[3.1.0]hexane-2,4-dione trihydrochloride]		inhibition at 1 µM [1]: 50 to 70%
Cc1cc(C(F)(F)F)nc(-c2ccnc3cc(CN4C(=O)C5C(C4=O)C5(C)C)sc23)c1C(=O)N1[C@@H](C)CNC[C@@H]1C (stereo partly drawn) [Example 141, 3-((7-(3-((2S,6S)-2,6-dimethylpiperazine-1-carbonyl)-4-methyl-6-(trifluoromethyl)pyridin-2-yl)thieno[3,2-b]pyridin-2-yl)methyl)-6,6-dimethyl-3-azabicyclo[3.1.0]hexane-2,4-dione 2,2,2-trifluoroacetate]	< 500	
Cc1cc(C(F)(F)F)nc(-c2ccnc3cc(CN4C(=O)C5C(C4=O)C5(C)C)sc23)c1C(=O)N1[C@H](C)CNC[C@H]1C (stereo partly drawn) [Example 142, 3-((7-(3-((2R,6R)-2,6-dimethylpiperazine-1-carbonyl)-4-methyl-6-(trifluoromethyl)pyridin-2-yl)thieno[3,2-b]pyridin-2-yl)methyl)-6,6-dimethyl-3-azabicyclo[3.1.0]hexane-2,4-dione 2,2,2-trifluoroacetate]	1000 to 10000	
CCN1CCN(C(=O)c2c(C)cc(C(F)(F)F)nc2-c2ccnc3cc(CN4C(=O)C5C(C4=O)C5(C)C)sc23)CC1 (centres unmarked) [Example 143, 3-((7-(3-(4-ethylpiperazine-1-carbonyl)-4-methyl-6-(trifluoromethyl)pyridin-2-yl)thieno[3,2-b]pyridin-2-yl)methyl)-6,6-dimethyl-3-azabicyclo[3.1.0]hexane-2,4-dione trihydrochloride]	< 500	
CN[C@H]1CCCN(C(=O)c2c(C)cc(C(F)(F)F)nc2-c2ccnc3cc(CN4C(=O)C5C(C4=O)C5(C)C)sc23)C1 (stereo partly drawn) [Example 144, 6,6-dimethyl-3-((7-(4-methyl-3-((S)-3-(methylamino)piperidine-1-carbonyl)-6-(trifluoromethyl)pyridin-2-yl)thieno[3,2-b]pyridin-2-yl)methyl)-3-azabicyclo[3.1.0]hexane-2,4-dione trihydrochloride]	1000 to 10000	
CC1(C)C2C(=O)N(Cc3cc4nccc(-c5ncc[nH]5)c4s3)C(=O)C21 (centres unmarked) [Example 146, 3-((7-(1H-imidazol-2-yl)thieno[3,2-b]pyridin-2-yl)methyl)-6,6-dimethyl-3-azabicyclo[3.1.0]hexane-2,4-dione 2,2,2-trifluoroacetate]		inhibition at 1 µM: < 20%
CC1(C)C2C(=O)N(Cc3cc4nccc(-c5nccn5CC5CNCCO5)c4s3)C(=O)C21 (centres unmarked) [Example 147, 6,6-dimethyl-3-((7-(1-(morpholin-2-ylmethyl)-1H-imidazol-2-yl)thieno[3,2-b]pyridin-2-yl)methyl)-3-azabicyclo[3.1.0]hexane-2,4-dione 2,2,2-trifluoroacetate]		inhibition at 1 µM: < 20%
CC1(C)C2C(=O)N(Cc3cc4nccc(-c5nc(C(F)(F)F)cn5C[C@@H]5CNCCO5)c4s3)C(=O)C21 (stereo partly drawn) [Example 149, 6,6-dimethyl-3-((7-(1-(((S)-morpholin-2-yl)methyl)-4-(trifluoromethyl)-1H-imidazol-2-yl)thieno[3,2-b]pyridin-2-yl)methyl)-3-azabicyclo[3.1.0]hexane-2,4-dione 2,2,2-trifluoroacetate]		inhibition at 1 µM: < 20%
Cc1cc(Cl)cc(-c2ccnc3ccoc23)c1O[C@H]1CCCNC1 [Example 150, (S)-7-(5-chloro-3-methyl-2-(piperidin-3-yloxy)phenyl)furo[3,2-b]pyridine 2,2,2-trifluoroacetate]	1000 to 10000	
Cc1cc(Cl)cc(-c2ccnc3nc(CN4C(=O)C5C(C4=O)C5(C)C)sc23)c1O[C@H]1CCCNC1 (stereo partly drawn) [Example 151, 3-((7-(5-chloro-3-methyl-2-(((S)-piperidin-3-yl)oxy)phenyl)thiazolo[4,5-b]pyridin-2-yl)methyl)-6,6-dimethyl-3-azabicyclo[3.1.0]hexane-2,4-dione dihydrochloride]		inhibition at 1 µM [1]: < 20%
CC1(C)C2C(=O)N(Cc3cc4nccc(-c5cc(F)cnc5O[C@H]5CCCNC5)c4s3)C(=O)C21 (stereo partly drawn) [Example 152, 3-((7-(5-fluoro-2-(((S)-piperidin-3-yl)oxy)pyridin-3-yl)thieno[3,2-b]pyridin-2-yl)methyl)-6,6-dimethyl-3-azabicyclo[3.1.0]hexane-2,4-dione dihydrochloride]		inhibition at 1 µM [1]: < 20%
Cc1cc(C(F)(F)F)nc(-c2ccnc3cc(CN4C(=O)C5C(C4=O)C5(C)C)sc23)c1CN1CC[C@@H]2CNC[C@@H]21 (stereo partly drawn) [Example 153, 3-((7-(3-(((3aR,6aR)-hexahydropyrrolo[3,4-b]pyrrol-1(2H)-yl)methyl)-4-methyl-6-(trifluoromethyl)pyridin-2-yl)thieno[3,2-b]pyridin-2-yl)methyl)-6,6-dimethyl-3-azabicyclo[3.1.0]hexane-2,4-dione trihydrochloride]	< 500	
Cc1c([N+](=O)[O-])cc(-c2ccnc3cc(CN4C(=O)C5C(C4=O)C5(C)C)sc23)n1C[C@@H]1CNCCO1 (stereo partly drawn) [Example 154, 6,6-dimethyl-3-((7-(5-methyl-1-(((S)-morpholin-2-yl)methyl)-4-nitro-1H-pyrrol-2-yl)thieno[3,2-b]pyridin-2-yl)methyl)-3-azabicyclo[3.1.0]hexane-2,4-dione hydrochloride]	< 500	
CCOC(=O)c1c(C(F)(F)F)c(C)n(C[C@@H]2CNCCO2)c1-c1ccnc2cc(CN3C(=O)C4C(C3=O)C4(C)C)sc12 (stereo partly drawn) [Example 155, ethyl 2-(2-((6,6-dimethyl-2,4-dioxo-3-azabicyclo[3.1.0]hexan-3-yl)methyl)thieno[3,2-b]pyridin-7-yl)-5-methyl-1-(((S)-morpholin-2-yl)methyl)-4-(trifluoromethyl)-1H-pyrrole-3-carboxylate hydrochloride]		inhibition at 1 µM [1]: < 20%
Cc1cc(C(F)(F)F)nc(-c2ccnc3cc(CN4C(=O)C5C(C4=O)C5(C)C)sc23)c1C(=O)N1CC2CCC1CN2 (centres unmarked) [Example 156, 3-((7-(3-(2,5-diazabicyclo[2.2.2]octane-2-carbonyl)-4-methyl-6-(trifluoromethyl)pyridin-2-yl)thieno[3,2-b]pyridin-2-yl)methyl)-6,6-dimethyl-3-azabicyclo[3.1.0]hexane-2,4-dione hydrochloride]	< 500	
CC1(C)C2C(=O)N(Cc3cc4nccc(-c5cc(F)cnc5O[C@H]5CCNC5)c4s3)C(=O)C21 (stereo partly drawn) [Example 157, 3-((7-(5-fluoro-2-(((S)-pyrrolidin-3-yl)oxy)pyridin-3-yl)thieno[3,2-b]pyridin-2-yl)methyl)-6,6-dimethyl-3-azabicyclo[3.1.0]hexane-2,4-dione dihydrochloride]		inhibition at 1 µM [1]: < 20%
CC1(C)C2C(=O)N(Cc3cc4nccc(-c5cc(F)cnc5O[C@@H]5CCNC5)c4s3)C(=O)C21 (stereo partly drawn) [Example 158, 3-((7-(5-fluoro-2-(((R)-pyrrolidin-3-yl)oxy)pyridin-3-yl)thieno[3,2-b]pyridin-2-yl)methyl)-6,6-dimethyl-3-azabicyclo[3.1.0]hexane-2,4-dione hydrochloride]		inhibition at 1 µM [1]: < 20%
Cc1cc(C(F)(F)F)nc(-c2ccnc3cc(CN4C(=O)C5C(C4=O)C5(C)C)sc23)c1CN1CC[C@@H]2CNC[C@@H]21 (stereo partly drawn) [Example 159, 3-((7-(3-(((3aR,6aR)-hexahydropyrrolo[3,4-b]pyrrol-1(2H)-yl)methyl)-4-methyl-6-(trifluoromethyl)pyridin-2-yl)thieno[3,2-b]pyridin-2-yl)methyl)-6,6-dimethyl-3-azabicyclo[3.1.0]hexane-2,4-dione trihydrochloride]	< 500	
